# Experimental data reported in ChEMBL document CHEMBL1201862, “PubChem BioAssay data set” (2004).
#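 Each compound was tested at five concentrations against cells in 96-well plates for 48 hours. GI50 is the concentration that inhibits growth by half.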 The source made the active and inactive calls. No stated cut-off is given here; in the data, active = GI50 up to about 1.1 µM and inactive = higher.
# Key:
# Test in all cases: inhibition of tumour cell growth, NCI panel, 48 h
# [1] = system: NCI-H23
# [2] = system: PC-3
# [3] = system: SK-MEL-28
# [4] = system: BT-549
# [5] = system: COLO 205
# [6] = system: MDA-MB-435
# [7] = system: HL-60
# [8] = system: OVCAR-3
# [9] = system: SN12C
# [10] = system: EKVX
# [11] = system: K562
# [12] = system: Malme-3M
# [13] = system: RXF 393
# [14] = system: UACC-257
# [15] = system: KM12
# [16] = system: 786-0
# [17] = system: HOP-62
# [18] = system: HOP-92
# [19] = system: CCRF-CEM
# [20] = system: SNB-19
# [21] = system: M14
# [22] = system: SF-295
# [23] = system: HT-29
# [24] = system: NCI-H460
# [25] = system: T47D
# [26] = system: HCT-15
# [27] = system: NCI/ADR-RES
# [28] = system: TK-10
# [29] = system: OVCAR-5
# [30] = system: MCF7
# [31] = system: SF-539
# [32] = system: SR
# [33] = system: DU-145
# [34] = system: NCI-H226
# [35] = system: U-251
# [36] = system: OVCAR-8
# [37] = system: SF-268
# [38] = system: HCC 2998
# [39] = system: ACHN
# [40] = system: SW-620
# [41] = system: HCT-116
# [42] = system: A549
# [43] = system: RPMI-8226
# [44] = system: MDA-N
# [45] = system: MOLT-4
# [46] = system: A498
# [47] = system: UO-31
# [48] = system: CAKI-1
# [49] = system: UACC-62
# [50] = system: SK-OV-3
# [51] = system: SNB-75
# [52] = system: OVCAR-4
# [53] = system: MDA-MB-231
# [54] = system: NCI-H522
# [55] = system: SK-MEL-2
# [56] = system: SK-MEL-5
# [57] = system: IGROV-1
smiles,measurement,setting,value
Cc1cc(C)c(N[S+]([O-])c2ccc(Cl)cc2)c(C)c1 (stereo not given),GI50,[1],> 100 µM (inactive)
same,GI50,[2],> 100 µM (inactive)
same,GI50,[3],> 100 µM (inactive)
same,GI50,[4],> 100 µM (inactive)
same,GI50,[5],> 100 µM (inactive)
same,GI50,[6],51.5 µM (inactive)
same,GI50,[7],> 100 µM (inactive)
same,GI50,[8],> 100 µM (inactive)
same,GI50,[9],> 100 µM (inactive)
same,GI50,[10],> 100 µM (inactive)
same,GI50,[11],> 100 µM (inactive)
same,GI50,[12],> 100 µM (inactive)
same,GI50,[13],> 100 µM (inactive)
same,GI50,[14],> 100 µM (inactive)
same,GI50,[15],> 100 µM (inactive)
same,GI50,[16],> 100 µM (inactive)
same,GI50,[17],> 100 µM (inactive)
same,GI50,[18],68.7 µM (inactive)
same,GI50,[19],> 100 µM (inactive)
same,GI50,[20],> 100 µM (inactive)
same,GI50,[21],> 100 µM (inactive)
same,GI50,[22],> 100 µM (inactive)
same,GI50,[23],> 100 µM (inactive)
same,GI50,[24],> 100 µM (inactive)
same,GI50,[25],> 100 µM (inactive)
same,GI50,[26],> 100 µM
same,GI50,[27],> 100 µM (inactive)
same,GI50,[28],> 100 µM (inactive)
same,GI50,[29],> 100 µM (inactive)
same,GI50,[30],> 100 µM (inactive)
same,GI50,[31],> 100 µM (inactive)
same,GI50,[32],> 100 µM (inactive)
same,GI50,[33],> 100 µM (inactive)
same,GI50,[34],> 100 µM (inactive)
same,GI50,[35],> 100 µM (inactive)
same,GI50,[36],> 100 µM (inactive)
same,GI50,[37],> 100 µM (inactive)
same,GI50,[38],83.4 µM (inactive)
same,GI50,[39],> 100 µM (inactive)
same,GI50,[40],> 100 µM (inactive)
same,GI50,[41],> 100 µM (inactive)
same,GI50,[42],> 100 µM (inactive)
same,GI50,[43],> 100 µM (inactive)
same,GI50,[44],71.1 µM (inactive)
same,GI50,[45],> 100 µM (inactive)
same,GI50,[46],> 100 µM (inactive)
same,GI50,[47],> 100 µM (inactive)
Cc1sc(Nc2ccccc2[N+](=O)[O-])c(C#N)c1C,GI50,[1],13.9 µM (inactive)
same,GI50,[2],94.8 µM (inactive)
same,GI50,[48],17.1 µM (inactive)
same,GI50,[3],99.3 µM (inactive)
same,GI50,[4],19.5 µM (inactive)
same,GI50,[5],> 100 µM (inactive)
same,GI50,[6],> 100 µM (inactive)
same,GI50,[8],19.8 µM (inactive)
same,GI50,[9],40.3 µM (inactive)
same,GI50,[10],35.4 µM (inactive)
same,GI50,[11],> 100 µM (inactive)
same,GI50,[12],0.0556 µM (active)
same,GI50,[49],77.8 µM (inactive)
same,GI50,[13],5.12 µM (inactive)
same,GI50,[14],> 100 µM (inactive)
same,GI50,[15],> 100 µM (inactive)
same,GI50,[16],22.6 µM (inactive)
same,GI50,[50],66.1 µM (inactive)
same,GI50,[17],20.8 µM (inactive)
same,GI50,[18],18.7 µM (inactive)
same,GI50,[51],12.1 µM (inactive)
same,GI50,[19],> 100 µM (inactive)
same,GI50,[20],26.2 µM (inactive)
same,GI50,[21],> 100 µM (inactive)
same,GI50,[22],26.2 µM (inactive)
same,GI50,[24],> 100 µM (inactive)
same,GI50,[25],28.4 µM (inactive)
same,GI50,[26],23 µM
same,GI50,[27],16.8 µM (inactive)
same,GI50,[29],23 µM (inactive)
same,GI50,[30],94.2 µM (inactive)
same,GI50,[31],21.5 µM (inactive)
same,GI50,[32],> 100 µM (inactive)
same,GI50,[33],65.2 µM (inactive)
same,GI50,[34],39.7 µM (inactive)
same,GI50,[52],43.6 µM (inactive)
same,GI50,[35],21.3 µM (inactive)
same,GI50,[36],27.7 µM (inactive)
same,GI50,[37],14.5 µM (inactive)
same,GI50,[38],> 100 µM (inactive)
same,GI50,[39],31 µM (inactive)
same,GI50,[41],17.5 µM (inactive)
same,GI50,[42],> 100 µM (inactive)
same,GI50,[43],> 100 µM (inactive)
same,GI50,[53],19.6 µM (inactive)
same,GI50,[44],> 100 µM (inactive)
same,GI50,[54],2.7 µM (inactive)
same,GI50,[45],> 100 µM (inactive)
same,GI50,[46],29.4 µM (inactive)
same,GI50,[47],> 100 µM (inactive)
CC(C(N)=O)N(C)C(=O)c1cc2ccccc2[n+](Cc2ccccc2)c1 (stereo not given),GI50,[1],> 100 µM (inactive)
same,GI50,[2],> 100 µM (inactive)
same,GI50,[48],> 100 µM (inactive)
same,GI50,[55],> 100 µM (inactive)
same,GI50,[3],> 100 µM (inactive)
same,GI50,[4],> 100 µM (inactive)
same,GI50,[5],> 100 µM (inactive)
same,GI50,[6],> 100 µM (inactive)
same,GI50,[7],> 100 µM (inactive)
same,GI50,[8],> 100 µM (inactive)
same,GI50,[9],> 100 µM (inactive)
same,GI50,[11],> 100 µM (inactive)
same,GI50,[12],> 100 µM (inactive)
same,GI50,[49],> 100 µM (inactive)
same,GI50,[13],> 100 µM (inactive)
same,GI50,[14],> 100 µM (inactive)
same,GI50,[15],> 100 µM (inactive)
same,GI50,[16],> 100 µM (inactive)
same,GI50,[56],> 100 µM (inactive)
same,GI50,[18],> 100 µM (inactive)
same,GI50,[51],> 100 µM (inactive)
same,GI50,[19],> 100 µM (inactive)
same,GI50,[20],> 100 µM (inactive)
same,GI50,[21],> 100 µM (inactive)
same,GI50,[22],> 100 µM (inactive)
same,GI50,[23],> 100 µM (inactive)
same,GI50,[24],> 100 µM (inactive)
same,GI50,[25],> 100 µM (inactive)
same,GI50,[26],> 100 µM
same,GI50,[27],> 100 µM (inactive)
same,GI50,[28],> 100 µM (inactive)
same,GI50,[29],> 100 µM (inactive)
same,GI50,[30],> 100 µM (inactive)
same,GI50,[31],> 100 µM (inactive)
same,GI50,[33],> 100 µM (inactive)
same,GI50,[34],> 100 µM (inactive)
same,GI50,[52],> 100 µM (inactive)
same,GI50,[35],> 100 µM (inactive)
same,GI50,[36],> 100 µM (inactive)
same,GI50,[37],> 100 µM (inactive)
same,GI50,[38],> 100 µM (inactive)
same,GI50,[57],> 100 µM (inactive)
same,GI50,[39],> 100 µM (inactive)
same,GI50,[40],> 100 µM (inactive)
same,GI50,[41],> 100 µM (inactive)
same,GI50,[42],> 100 µM (inactive)
same,GI50,[43],> 100 µM (inactive)
same,GI50,[53],> 100 µM (inactive)
same,GI50,[44],> 100 µM (inactive)
same,GI50,[54],> 100 µM (inactive)
same,GI50,[45],> 100 µM (inactive)
same,GI50,[46],> 100 µM (inactive)
same,GI50,[47],> 100 µM (inactive)
